# Measurements taken from patent publication US11878012B2, “Compositions and methods for treating traumatic brain injury” (Board of Regents, the University of Texas System, priority 2020, dated 2024).
# Assays:
# [1] = system: DGGCs; assay: Ca2+ imaging with calcium green-1 in DGGCs of hippocampal slices, whole-cell mode; format: cell-based, mice; conditions: for peak calcium green-1 fluorescence increase: M1R stimulation
# Procedure: (§1) Hippocampal Slice Preparation. […] Hippocampal slices were maintained in oxygenated ACSF at 30° C. for 60 min and experiments were performed at 25° C.
# Ca2^+ Imaging. Concurrent with patch-clamp electrophysiology, neurons in slices were also imaged (Nikon FN-1, 40× water-immersion objective) via the fluorescent Ca^2+-reporter dye calcium green-1. As a hexapotassium salt, the dye (10 μm) was added to the intracellular patch pipette solution and neurons were patched under whole-cell clamp, as described above. Cells were loaded for 10 min before image acquisition. Fluorescence intensity was obtained using a SOLA Light Engine illumination source (Lumencor) with an output of 3.5 W through a 3-mm-diameter liquid light guide through a Nikon ET-GFP filter. Nikon Elements software was used for image acquisition through a QIClick CCD camera (QImaging). Images were acquired with an exposure time of 200 ms every 2 min using a single-channel, 12-bit rate and no binning. The shutter was closed between each acquisition. For each cell, the corrected total cell fluorescence was measured as the integrated density intensity—(cell area*mean background emission). Ca^2+ signals were measured as the change in fluorescence relative to the baseline fluorescence (ΔF/F0). Averages of four images were thresholded at 10%, masked using a highly averaged image of the cell, and encoded with a pseudocolor look-up table. Group cell fluorescence data were averaged in comparison with normalized intensity at each time point.
# [2] = system: TRPC4/5 channels; conditions: description from literature; cited from earlier work
# [3] = system: other TRPC channels; conditions: description; cited from earlier work
# [4] = system: DGGCs; assay: GCaMP6f brain slice Ca2+ imaging of DGGCs after sham or CCI-TBI; format: cell-based, mice; conditions: for Ca2+ influx events per neuron: 0.3 mM ACh 5 min; for duration of Ca2+ influx / peak amplitude of Ca2+ influx: ACh
# Excerpt: Neuromodulation of TRPC generates robust Ca2+ influx and facilitates neuronal hyperexcitability. […] To assess the post-injury effect of TRPC channel upregulation on neurons, we used Ca2+ imaging in brain slice to measure excitability as a product of intracellular Ca2+ gating by TRPC1/4/5 channels (FIG. 4). […] Transgenic mice with the GCaMP6f transgene were used to detect changes in cellular Ca2+-activated fluorescence. We hypothesized that DGGC activity increases due to muscarinic stimulation with ACh or direct activation of TRPC4-containing channels with EA. Sensitivity was tested by bath perfusion of ACh or EA to the slice for 5 minutes during Ca2+ imaging to quantify peak amplitude of GCaMP6f fluorescence per cell, duration of Ca2+ influx, and the field-frequency of events (FIG. 4).
# Brain slice Ca2+ imaging. Transverse slices (300 μm) of hippocampus were cut with a vibratome (Thermo Scientific Microm HM650V) from Cre-CamK2+/GCamp6f+/− mice. […] Hippocampal slices were maintained in oxygenated ACSF at 30° C. for 60 min, and experiments performed at 28° C. […] Neurons were visually identified with a Nikon FN-1 microscope equipped with a 40× water-immersion objective and infrared differential interference contrast. GCaMP6f fluorescence was obtained using a SOLA Light Engine Illumination source (Lumecor) with an output of 3.5W through a 3 mm diameter liquid light guide through a Nikon ET-GFP filter. Nikon Elements software was used for image acquisition through a QIClick CCD camera (Qlmaging) with a Uniblitz Model VMM-D 1 shutter driver. Baseline time series of the DG granule layer were acquired in the presence of bath solution perfusion for 2 min. […] Images were acquired in time series with an exposure time of 200 ms at 2-10 fps at 12-bit rate and no binning. Time-series image stacks were processed with ImageJ. Images were background subtracted using the mean of the 5% lowest pixel values. Ca2+ signal events were quantified for each cell as change in fluorescence divided by the baseline fluorescence (ΔF/FO) after background subtraction. ROI signals were detrended before quantification to account for drift due to gradual photobleaching of the background.
# [5] = system: seizure susceptibility; assay: Single subconvulsant PTZ challenge 7 days after CCI-TBI; format: in vivo, mice; conditions: PTZ 50 mg/kg single dose 7 days after TBI, n=14
# Excerpt: TBI facilitates TRPC-dependent seizure susceptibility.
# Controlled cortical impact traumatic brain injury. […] Apnea episodes lasted between 10-60 sec after impact.
# Seizure susceptibility assays. Pentylenetetrazol kindling model.
# [6] = system: seizure susceptibility; assay: PTZ kindling after sham or CCI-TBI
# Procedure: The fact that only a portion of TBI cases become susceptible to epileptic seizures is a yet unanswered phenomenon in both preclinical and clinical studies. Therefore, we investigated seizure susceptibility within the CCI-TBI model to gain a greater understanding as to the etiology of hyperexcitability spread occurring post-injury. […] In our seizure susceptibility paradigm, 1 or 7 days after experimental procedure, mice were challenged with a subconvulsant dose of PTZ (35 mg/kg s.c.) once-daily to elicit kindling epileptogenesis (FIG. 6A). The progression of motor seizure behavior was observed and timed by direct observation linked to EEG activity (FIG. 6B).
# We wished to understand if the TRPC channel upregulation after TBI could be targeted to impede epileptogenic activity. […] Seizure susceptibility was standardized according to the latency to forelimb clonus lasting greater than 5 sec.
# Controlled cortical impact traumatic brain injury. The controlled cortical impact (CCI) traumatic brain injury (TBI) model was applied, with a closed skull impact approach. The CCI model causes TBI, but the skull remains intact with minimal hematoma. This type of brain injury model most closely simulates the TBI experienced during blunt-head injuries from vehicular accidents or falls. Mice were anesthetized with isoflurane (3% induction, 1% maintenance) in 100% O2. Body temperature of 37° C. was maintained using a temperature-controlled heated surgical table. The skull was fixed with ear-bars into a stereotaxic frame. A small midline incision was made on the scalp using aseptic surgical techniques. Impact was delivered by cylindrical probe of 5 mm diameter with an Impact One neurotrauma impactor (Leica Biosystems). A calibrated impact was delivered at 4.5 m/sec to a depth of 1 mm and 0.5 sec dwell time to the right parietal cortex (−1.8 mm ML, +2.0 mm AP, −1.0 mm DV). […] The scalp was then sutured closed and mice were placed in a warming recirculation unit and monitored until fully awake and moving freely. […] For consistency, the left hemisphere of both sham and TBI mice is designated as “contralateral” brain, and the right hemisphere is referred to as “ipsilateral”, despite no impact injury occurring in sham mice.
# In vivo electroencephalograms. To determine seizure frequency and record brain susceptibility to seizures, mice were implanted with electroencephalogram (EEG) electrodes 24 hr after sham or TBI. A three-channel tethered EEG system was used. The electrode pedestal (P1 Technologies) was secured to the skull with three anchored dental screws and connected to a preamplifier with gain of 25. The three leads were inserted over the left frontal cortex, left parietal cortex, and depth electrode lead into the hippocampus. The Stellate Harmonie acquisition hardware and software were used to collect coincident video and EEG activity. EEGs were inspected for presence of epileptiform spikes and seizures.
# Seizure susceptibility assays. Pentylenetetrazol kindling model. Seizure susceptibility was tested with the GABAA receptor antagonist pentylenetetrazol (PTZ) for progression of motor seizure activity. Mice were injected with PTZ (35 mg/kg, s.c.) once per day and scored for motor behavioral seizures.
# [7] = system: TRPC1/4/5 channels; conditions: Rubaiy et al., 2017; cited from earlier work
# [8] = system: DGGCs; assay: Patch-clamp / current-clamp recordings of DGGCs in hippocampal slices (action potentials, AHP, IM amplitude); format: cell-based, mice
# Procedure: as §1
# [9] = PTZ daily from 1 day post-TBI, TBI
# [10] = PTZ daily from 1 day post-procedure, sham
# [11] = PTZ daily from 7 days after TBI, TBI
# [12] = PTZ daily from 7 days after procedure, sham
# [13] = TRPC4/5 channels blocked, control or plus 77-LH-28-1 3 μM
# [14] = IP3 receptor blockade, xestospongin C 10 μm
structure (smiles),measurement,setting,value
"Cc1cc(N2CCCCC2)nc2ccccc12 [ML204, 4-Methyl-2-(1-piperidinyl)quinolone]",maximum calcium-green 1 emission on muscarinic stimulation,"[1]; M084 and ML204 together, 10 μm",1.61±0.21 fold
same,effect on TRPC4/5 channels,[2],selectively inhibit
same,blockage of other TRPC channels,[3],no appreciable blockage
"CC(=O)OCC[N+](C)(C)C [ACh, acetylcholine]",Ca2+ influx events per neuron,[4]; contralateral TBI,2.6±0.2 events/neuron
same,Ca2+ influx events per neuron,[4]; ipsilateral TBI,4.3±0.2 events/neuron
same,Ca2+ influx events per neuron,[4]; sham control tissue,1.8±0.3 events/neuron
same,duration of Ca2+ influx,[4]; contralateral DGGCs,6.12 ± 0.19 s
same,peak amplitude of Ca2+ influx,[4]; contralateral DGGCs,1.70±0.12 ΔF/F
same,duration of Ca2+ influx,[4]; ipsilateral DGGCs,8.51 ± 0.20 s
same,peak amplitude of Ca2+ influx,[4]; ipsilateral TBI DGGCs,4.31±0.58 ΔF/F
"C1CCc2nnnn2CC1 [PTZ, pentylenetetrazol]",mice acquiring myoclonic jerks,[5],100%
same,mice with forelimb clonus seizures,[5],86%
same,latency to myoclonic jerks,"[6]; PTZ 35 mg/kg s.c. daily from 1 day post-TBI, TBI",4.4 ± 0.6 days
same,latency to myoclonic jerks,"[6]; PTZ 35 mg/kg s.c. daily from 1 day post-procedure, sham",9.5 ± 0.6 days
same,latency to forelimb clonus,[6]; [9],5.6 ± 0.7 days
same,latency to tonic-clonic seizure,[6]; [9],7.9 ± 0.7 days
same,latency to forelimb clonus,[6]; [10],11.3 ± 0.7 days
same,latency to tonic-clonic seizure,[6]; [10],12.5 ± 0.8 days
same,latency to forelimb clonus,[6]; [11],4.3 ± 0.8 days
same,latency to myoclonic jerks,[6]; [11],3.6 ± 0.7 days
same,latency to tonic-clonic seizure,[6]; [11],5.6 ± 1.2 days
same,latency to forelimb clonus,[6]; [12],12.0 ± 0.6 days
same,latency to myoclonic jerks,[6]; [12],9.8 ± 0.4 days
same,latency to tonic-clonic seizure,[6]; [12],13.1 ± 0.6 days
same,mice with lethal seizures on second tonic-clonic occurrence,"[6]; PTZ kindling from 1 day post-TBI, TBI group",five out of eight
Cn1c(=O)n(CCCO)c(=O)c2c1nc(Oc1cccc(OC(F)(F)F)c1)n2Cc1ccc(Cl)cc1 [Pico145],potency on TRPC1/4/5 channels,[7],picomolar potency
CCCCC1CCN(CCCN2C(=O)CCc3ccccc32)CC1 [77-LH-28-1],peak calcium green-1 fluorescence increase,[1]; 77-LH-28-1 3 μm,2.91±0.41 fold
same,peak calcium green-1 fluorescence increase,[1]; 77-LH-28-1 10 μm,4.27±0.95 fold
same,enhancement of IM amplitude,[8]; 77-LH-28-1 3 μm with TRPC4/5 channels blocked,1.83 ±0.14 fold
same,action potential firing rate,"[8]; 77-LH-28-1 3 μm, no TRPC4/5 blocker",significantly increased
same,enhancement of IM amplitude,[8]; M1R stimulation in the absence of TRPC4/5 channel blockers,1.92±0.10 fold
same,action potential threshold,"[8]; M084 10 μm + 77-LH-28-1 3 μm, n=8 cells",−46.1±1.5 mV
same,AHP amplitude,[8]; [13],13.6 ± 0.9 mV
same,AHP area,[8]; [13],264.8 ± 21.5 ms* mV
same,AHP decay,[8]; [13],17.1 ± 0.8 ms
C1CCC[C@H]2CCCN3CC[C@@H](CCCCCC[C@@H]4CCCN5CC[C@@H](CC1)O[C@@H]45)O[C@@H]23 [xestospongin C],rises in [Ca2+]i on mAChR stimulation,[1]; [14],substantial rises
same,action potential firing frequency on mAChR stimulation,[8]; [14],increased action potential firing frequency
same,M1R-mediated enhancement of IM,[8]; xestospongin C 10 μm in the pipette,1.67±0.14 fold
CCCCCCCCCCCCCCCCCCOCC(COP(=O)([O-])OCC[N+](C)(C)C)OC (stereo not drawn) [edelfosine],maximum dye emission over that before agonist,"[1]; slices preincubated with edelfosine 10 μm, then 77-LH-28-1",1.15±0.08 fold
